Measured values published in patent US12534474B2, “Dihydrofuropyridine derivatives as rho-kinase inhibitors” (CHIESI FARMACEUTICI S.P.A., priority 2020, dated 2026).

Legend:
Type in all cases: biochemical
[1] = molecular target: T1, ROCK2 (Homo sapiens, UniProt O75116); test: In vitro Rho kinase inhibitory activity assay, ADP-Glo, Method A (ATP 10 μM); settings: read-out: Method A ROCK 2 (Ki)
Description: (§1) In Vitro Inhibitory Activity Assay Description (Method A)
(§2) The effectiveness of compounds of the present invention to inhibit Rho kinase activity can be determined in a 10 μL assay containing 40 mM Tris pH7.5, 20 mM MgCl2 0.1 mg/mL BSA, 50 μM DTT and 2.5 μM peptide substrate (Myelin Basic Protein) using an ADP-Glo kit (Promega). Compounds were dissolved in DMSO such that the final concentration of DMSO was 1% in the assay. All reactions/incubations are performed at 25° C. Compound (2 μL) and either Rho kinase 1 or 2 (4 μL) were mixed and incubated for 30 min. Reactions were initiated by addition of ATP (4 μL) such that the final concentration of ATP in the assay was 10 μM. After a 1 hour incubation 10 μL of ADP-Glo Reagent was added and after a further 45 minute incubation 20 μL of Kinase Detection Buffer was added and the mixture incubated for a further 30 minutes. The luminescent signal was measured on a luminometer. […] Compounds were tested in dose-response format and the inhibition of kinase activity was calculated at each concentration of compound. To determine the IC50 (concentration of compound required to inhibit 50% of the enzyme activity) data were fit to a plot of % inhibition vs Log10 compound concentration using a sigmoidal fit with a variable slope and fixing the maximum to 100% and the minimum to 0%. To determine the Ki values the Cheng-Prusoff equation was utilized (Ki=IC50/(1+[S]/Km).

[2] = molecular target: T2, ROCK1 (Homo sapiens, UniProt Q13464); test: as above; settings: read-out: Method A ROCK 1 (Ki)
T2 sequence (Q13464 whole entry): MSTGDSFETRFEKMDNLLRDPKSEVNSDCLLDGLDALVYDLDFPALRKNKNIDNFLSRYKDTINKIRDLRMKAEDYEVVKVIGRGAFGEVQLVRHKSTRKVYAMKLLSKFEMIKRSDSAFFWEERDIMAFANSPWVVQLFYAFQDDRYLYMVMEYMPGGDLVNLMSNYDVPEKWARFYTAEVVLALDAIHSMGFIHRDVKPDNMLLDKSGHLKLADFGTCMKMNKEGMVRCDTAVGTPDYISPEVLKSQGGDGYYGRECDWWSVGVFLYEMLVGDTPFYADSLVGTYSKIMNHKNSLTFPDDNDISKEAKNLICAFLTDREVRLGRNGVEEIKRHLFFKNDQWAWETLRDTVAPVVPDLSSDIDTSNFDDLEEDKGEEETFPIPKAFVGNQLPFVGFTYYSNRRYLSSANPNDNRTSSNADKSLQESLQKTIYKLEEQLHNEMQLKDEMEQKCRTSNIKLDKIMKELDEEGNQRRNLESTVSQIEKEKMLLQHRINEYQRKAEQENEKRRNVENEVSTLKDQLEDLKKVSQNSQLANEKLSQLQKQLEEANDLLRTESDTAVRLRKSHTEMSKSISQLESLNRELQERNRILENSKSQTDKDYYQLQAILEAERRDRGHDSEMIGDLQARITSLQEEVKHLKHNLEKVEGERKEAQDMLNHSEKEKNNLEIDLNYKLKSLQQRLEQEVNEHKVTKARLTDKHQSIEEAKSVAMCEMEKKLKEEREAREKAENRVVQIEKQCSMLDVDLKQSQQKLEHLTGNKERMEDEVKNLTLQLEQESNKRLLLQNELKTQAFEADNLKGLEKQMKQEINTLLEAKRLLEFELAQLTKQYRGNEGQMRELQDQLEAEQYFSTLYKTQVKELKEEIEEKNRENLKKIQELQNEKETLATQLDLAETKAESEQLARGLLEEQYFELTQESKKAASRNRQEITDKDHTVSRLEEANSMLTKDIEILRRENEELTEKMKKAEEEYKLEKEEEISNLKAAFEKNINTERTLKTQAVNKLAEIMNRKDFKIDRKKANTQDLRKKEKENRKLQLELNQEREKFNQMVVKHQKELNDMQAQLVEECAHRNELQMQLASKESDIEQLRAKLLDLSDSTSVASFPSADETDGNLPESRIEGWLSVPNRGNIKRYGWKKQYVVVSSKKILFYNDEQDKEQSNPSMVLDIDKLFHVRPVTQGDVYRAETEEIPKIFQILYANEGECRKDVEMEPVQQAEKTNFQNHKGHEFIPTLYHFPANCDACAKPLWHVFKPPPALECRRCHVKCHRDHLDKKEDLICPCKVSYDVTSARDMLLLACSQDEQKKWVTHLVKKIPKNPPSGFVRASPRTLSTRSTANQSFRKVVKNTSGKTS
Description: as §1, §2

[3] = molecular target: T1, ROCK2; test: In vitro Rho kinase inhibitory activity assay, ADP-Glo, Method B (ATP 200 μM); settings: read-out: Method B ROCK 2 (Ki)
Description: (§3) In Vitro Inhibitory Activity Assay Description (Method B)
as §2, with “(2 ul)” for “(2 μL)”, “was 200” for “was 10”, “20 ul” for “20 μL”, “vs Log 10” for “vs Log10”

[4] = molecular target: T2, ROCK1; test: as above; settings: read-out: Method B ROCK 1 (Ki)
Description: as §3
as §2, with “(2 ul)” for “(2 μL)”, “was 200” for “was 10”, “20 ul” for “20 μL”, “vs Log 10” for “vs Log10”

T1 sequence (O75116 whole entry): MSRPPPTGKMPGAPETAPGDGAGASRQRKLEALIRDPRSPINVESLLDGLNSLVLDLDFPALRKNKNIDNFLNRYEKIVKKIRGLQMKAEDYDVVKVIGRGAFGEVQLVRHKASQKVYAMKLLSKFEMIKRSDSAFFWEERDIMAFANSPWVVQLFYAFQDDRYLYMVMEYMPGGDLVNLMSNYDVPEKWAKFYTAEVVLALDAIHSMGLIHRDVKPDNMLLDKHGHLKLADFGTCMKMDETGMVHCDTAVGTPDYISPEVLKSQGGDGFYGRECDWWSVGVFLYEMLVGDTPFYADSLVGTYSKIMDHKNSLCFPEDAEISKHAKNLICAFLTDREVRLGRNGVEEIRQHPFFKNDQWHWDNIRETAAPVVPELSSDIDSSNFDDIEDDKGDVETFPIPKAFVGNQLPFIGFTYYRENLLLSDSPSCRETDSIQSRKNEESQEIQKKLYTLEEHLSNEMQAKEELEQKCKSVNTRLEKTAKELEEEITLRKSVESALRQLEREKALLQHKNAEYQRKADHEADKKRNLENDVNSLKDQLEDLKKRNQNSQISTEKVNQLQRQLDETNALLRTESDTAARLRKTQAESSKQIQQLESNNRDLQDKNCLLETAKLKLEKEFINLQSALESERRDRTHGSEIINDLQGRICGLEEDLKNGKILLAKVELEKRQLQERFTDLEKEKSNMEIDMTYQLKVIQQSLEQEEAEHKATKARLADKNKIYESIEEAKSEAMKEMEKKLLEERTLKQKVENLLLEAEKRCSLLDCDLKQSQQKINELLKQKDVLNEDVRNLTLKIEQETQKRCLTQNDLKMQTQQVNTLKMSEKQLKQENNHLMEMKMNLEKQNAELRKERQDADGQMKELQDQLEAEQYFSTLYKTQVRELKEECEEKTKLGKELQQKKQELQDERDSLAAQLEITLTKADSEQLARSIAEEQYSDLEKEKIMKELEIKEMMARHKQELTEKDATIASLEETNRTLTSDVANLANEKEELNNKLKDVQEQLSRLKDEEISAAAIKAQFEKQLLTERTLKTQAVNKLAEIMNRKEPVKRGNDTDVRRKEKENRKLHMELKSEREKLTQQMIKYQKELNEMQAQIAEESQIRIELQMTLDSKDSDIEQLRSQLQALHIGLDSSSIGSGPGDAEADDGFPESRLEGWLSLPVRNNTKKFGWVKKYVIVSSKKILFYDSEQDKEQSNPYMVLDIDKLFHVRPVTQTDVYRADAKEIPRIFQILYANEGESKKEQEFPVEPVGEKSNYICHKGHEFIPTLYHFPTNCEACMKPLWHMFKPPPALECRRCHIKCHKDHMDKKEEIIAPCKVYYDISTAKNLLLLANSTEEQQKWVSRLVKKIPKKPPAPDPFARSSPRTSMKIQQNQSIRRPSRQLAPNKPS

SMILES | Ki [1] [nM] | Ki [2] [nM] | Ki [3] [nM] | Ki [4] [nM]
CN1CCc2nc(NC(=O)c3cccc(CNc4ncc(-c5ccnc(N)c5)c5c4CCO5)c3)sc2C1 [Example 49, 3-(((7-(2-aminopyridin-4-yl)-2,3-dihydrofuro[3,2-c]pyridin-4-yl)amino)methyl)-N-(5-methyl-4,5,6,7-tetrahydrothiazolo[5,4-c]pyridin-2-yl)benzamide] | ≤ 3 | ≤ 3 | – | –
Cn1ncc2cc(C(=O)Nc3cccc(CNc4ncc(-c5ccncc5)c5c4CCO5)c3)ccc21 [Example 37, 1-methyl-N-(3-(((7-(pyridin-4-yl)-2,3-dihydrofuro[3,2-c]pyridin-4-yl)amino)methyl)phenyl)-1H-indazole-5-carboxamide] | ≤ 3 | ≤ 3 | – | –
CC1CCN(CCC(=O)Nc2cccc(CNc3ncc(-c4ccncc4)c4c3CCO4)c2)CC1 [Example 32, 3-(4-Methylpiperidin-1-yl)-N-(3-(((7-(pyridin-4-yl)-2,3-dihydrofuro[3,2-c]pyridin-4-yl)amino)methyl)phenyl)propanamide] | 3 to 30 | 3 to 30 | – | –
CN(C)Cc1cccc(NC(=O)c2cccc(CNc3ncc(-c4ccncc4)c4c3CCO4)c2)c1 [Example 26, N-(3-((dimethylamino)methyl)phenyl)-3-(((7-(pyridin-4-yl)-2,3-dihydrofuro[3,2-c]pyridin-4-yl)amino)methyl)benzamide] | ≤ 3 | ≤ 3 | – | –
O=C(Nc1cccc(CNc2ncc(-c3ccncc3)c3c2CCO3)c1)c1ccc2c(c1)CCNC2 [Example 40, N-(3-(((7-(pyridin-4-yl)-2,3-dihydrofuro[3,2-c]pyridin-4-yl)amino)methyl)phenyl)-1,2,3,4-tetrahydroisoquinoline-6-carboxamide] | ≤ 3 | ≤ 3 | – | –
CN(C)Cc1cccc(CNC(=O)c2cccc(CNc3ncc(-c4ccncc4)c4c3CCO4)c2)c1 [Example 27, N-(3-((dimethylamino)methyl)benzyl)-3-(((7-(pyridin-4-yl)-2,3-dihydrofuro[3,2-c]pyridin-4-yl)amino)methyl)benzamide] | ≤ 3 | ≤ 3 | – | –
CN(C)CCn1ccc2cc(C(=O)Nc3cccc(CNc4ncc(-c5ccncc5)c5c4CCO5)c3)ccc21 [Example 39, 1-(2-(dimethylamino)ethyl)-N-(3-(((7-(pyridin-4-yl)-2,3-dihydrofuro[3,2-c]pyridin-4-yl)amino)methyl)phenyl)-1H-indole-5-carboxamide] | ≤ 3 | ≤ 3 | – | –
O=C(Nc1cccc(CNc2ncc(-c3ccncc3)c3c2CCO3)c1)c1nc2c(s1)CN(C1COC1)CC2 [Example 38, 5-(oxetan-3-yl)-N-(3-(((7-(pyridin-4-yl)-2,3-dihydrofuro[3,2-c]pyridin-4-yl)amino)methyl)phenyl)-4,5,6,7-tetrahydrothiazolo[5,4-c]pyridine-2-carboxamide] | ≤ 3 | ≤ 3 | – | –
CN1CCc2nc(C(=O)Nc3cccc(CNc4ncc(-c5ccncc5)c5c4CCO5)c3)sc2C1 [Example 34, 5-methyl-N-(3-(((7-(pyridin-4-yl)-2,3-dihydrofuro[3,2-c]pyridin-4-yl)amino)methyl)phenyl)-4,5,6,7-tetrahydrothiazolo[5,4-c]pyridine-2-carboxamide] | ≤ 3 | ≤ 3 | – | –
CN1CCc2nc(NC(=O)c3ccnc(CNc4ncc(-c5ccncc5)c5c4CCO5)c3)sc2C1 [Example 51, N-(5-methyl-4,5,6,7-tetrahydrothiazolo[5,4-c]pyridin-2-yl)-2-(((7-(pyridin-4-yl)-2,3-dihydrofuro[3,2-c]pyridin-4-yl)amino)methyl)isonicotinamide] | ≤ 3 | 3 to 30 | – | –
CN1CCc2nc(NC(=O)c3cccc(CNc4ncc(-c5ccncc5)c5c4CCO5)c3)sc2C1 [Example 23, N-(5-methyl-4,5,6,7-tetrahydrothiazolo[5,4-c]pyridin-2-yl)-3-(((7-(pyridin-4-yl)-2,3-dihydrofuro[3,2-c]pyridin-4-yl)amino)methyl)benzamide] | ≤ 3 | ≤ 3 | – | –
O=C(Nc1cccc(CNc2ncc(-c3ccncc3)c3c2CCO3)c1)c1cccc(CN2CCOCC2)c1 [Example 33, 3-(morpholinomethyl)-N-(3-(((7-(pyridin-4-yl)-2,3-dihydrofuro[3,2-c]pyridin-4-yl)amino)methyl)phenyl)benzamide] | 3 to 30 | 3 to 30 | – | –
Cc1cc(-c2cnc(NCc3cccc(C(=O)Nc4nc5c(s4)CN(C)CC5)c3)c3c2OCC3)ccn1 [Example 47, N-(5-Methyl-4,5,6,7-tetrahydrothiazolo[5,4-c]pyridin-2-yl)-3-(((7-(2-methylpyridin-4-yl)-2,3-dihydrofuro[3,2-c]pyridin-4-yl)amino)methyl)benzamide] | 3 to 30 | 3 to 30 | – | –
O=C(NCCc1cccnc1)c1cccc(CNc2ncc(-c3ccncc3)c3c2CCO3)c1 [Example 29, N-(2-(pyridin-3-yl)ethyl)-3-(((7-(pyridin-4-yl)-2,3-dihydrofuro[3,2-c]pyridin-4-yl)amino)methyl)benzamide] | ≤ 3 | ≤ 3 | – | –
CN(C)Cc1nc(C(=O)Nc2cccc(CNc3ncc(-c4ccncc4)c4c3CCO4)c2)cs1 [Example 53, 2-((dimethylamino)methyl)-N-(3-(((7-(pyridin-4-yl)-2,3-dihydrofuro[3,2-c]pyridin-4-yl)amino)methyl)phenyl)thiazole-4-carboxamide] | 3 to 30 | 3 to 30 | – | –
O=C(Nc1ncc(CN2CCCC2)s1)c1cccc(CNc2ncc(-c3ccncc3)c3c2CCO3)c1 [Example 1, 3-(((7-(Pyridin-4-yl)-2,3-dihydrofuro[3,2-c]pyridin-4-yl)amino)methyl)-N-(5-(pyrrolidin-1-ylmethyl)thiazol-2-yl)benzamide] | ≤ 3 | ≤ 3 | ≤ 3 | ≤ 3
CN1CCc2nc(NC(=O)c3cccc(CNc4ncc(-c5ccncc5)c5c4CCO5)n3)sc2C1 [Example 52, N-(5-methyl-4,5,6,7-tetrahydrothiazolo[5,4-c]pyridin-2-yl)-6-(((7-(pyridin-4-yl)-2,3-dihydrofuro[3,2-c]pyridin-4-yl)amino)methyl)picolinamide] | ≤ 3 | 3 to 30 | – | –
O=C(NCCc1ccncc1)c1cccc(CNc2ncc(-c3ccncc3)c3c2CCO3)c1 [Example 25, 3-(((7-(Pyridin-4-yl)-2,3-dihydrofuro[3,2-c]pyridin-4-yl)amino)methyl)-N-(2-(pyridin-4-yl)ethyl)benzamide] | ≤ 3 | ≤ 3 | – | –
O=C(N[C@H](CO)c1ccccc1)c1cccc(CNc2ncc(-c3ccncc3)c3c2CCO3)c1 [Example 24, (S)-N-(2-hydroxy-1-phenylethyl)-3-(((7-(pyridin-4-yl)-2,3-dihydrofuro[3,2-c]pyridin-4-yl)amino)methyl)benzamide] | ≤ 3 | ≤ 3 | – | –
CN1CCc2nc(NC(=O)c3cccc(CNc4ncc(-c5ccnc(F)c5)c5c4CCO5)c3)sc2C1 [Example 50, 3-(((7-(2-fluoropyridin-4-yl)-2,3-dihydrofuro[3,2-c]pyridin-4-yl)amino)methyl)-N-(5-methyl-4,5,6,7-tetrahydrothiazolo[5,4-c]pyridin-2-yl)benzamide] | ≤ 3 | ≤ 3 | – | –
CN1CCn2nc(NC(=O)c3cccc(CNc4ncc(-c5ccncc5)c5c4CCO5)c3)cc2C1 [Example 21] | ≤ 3 | ≤ 3 | ≤ 3 | ≤ 3
CC(=O)Nc1cccc(CNc2ncc(-c3ccncc3)c3c2CC(C)O3)c1 (stereo not drawn) [Example 55, N-(3-(((2-methyl-7-(pyridin-4-yl)-2,3-dihydrofuro[3,2-c]pyridin-4-yl)amino)methyl)phenyl)acetamide] | 3 to 30 | 3 to 30 | – | –
